The values below come from patent publication US6773702B2, “Use of combretastatin A4 and its prodrugs as an immune enhancing therapy” (OXiGENE, Inc., priority 2000, dated 2004).

Data set [1] has as its system spleen cells isolated from BN7005-H1D2 tumor-bearing rats. Kind of data set: In vitro proliferation of spleen cells from vaccinated tumor-bearing rats treated in vivo with CA4P (FIG. 1). Set-up: species or system rat. Particulars: CA4P 2 mg/kg 5 days a week + vaccination.
Data set [2] relates to colon carcinoma H1D2-WT cells. Description: Intrahepatic growth of colon carcinoma H1D2-WT, tumor volume after 4 weeks (Table 2). In kind it is in vivo, rat. The procedure:
Table 2 is a summary of intrahepatic growth of colon carcinoma H1D2-WT cells treated with low dose CA4P alone or in combination with immunomodulatory gene therapy, and with or without additional inhibitor. Tumor growth was initiated by inoculation beneath the liver capsule with 1×10^5 in vitro cultured BN7005-H1D2 wild type cells suspended in 50 μl RPMI medium. Drug administration (CA4P, L-NAME, Indomethacin) was initiated after 7-8 days when the tumor was macroscopically visible. CA4P was given intraperitoneally, 5 days a week. L-NAME was given by gavage twice a week on the day of immunization and the day after. Indomethacin was given by gavage 48 h after vaccination at a dose of 0.33 mg/kg. Immunization was performed by intraperitoneal administration on day 10 and day 17 using BN7005-H1D2 cells transfected with IL-18 or a mixture of IL-18 and IL-12 transfectants (2-3×10^6 viable cells per rat).
Wild-type (BN7005-H1D2) colon cancer cells (1×10^5 cells) were inoculated intrahepatically and CA4P drug treatment (2 and 5 mg/kg) began daily when the tumors were macroscopically visible. On day 10 and 17, vaccinations were administered intraperitoneally using […] cells transfected with IL-18 transfected cells or mixtures of IL-18 and IL-12 transfected cells (2-3×10^6 viable cells per rat). L-NAME and Indomethacin were also administered by gavage 48 h after vaccination at a dose of 0.33 mg/kg.

Data set [3] deals with spleen cells of tumor-free rats immunized with BN7005-H1D2-IL-12 and IL-18 cells. Kind of data set: Proliferative T cell response (thymidine incorporation) after in vitro preincubation of spleen cells with CA4P. In kind it is cell-based, rat. The source says:
Macrophages were isolated as plastic-adherent spleen cells from tumor-free rats vaccinated with IL-18 and IL-12 transfected tumor cells. […] This effect is interpreted as due to a decrease of the suppressive effect of IL-12 and IL-18 activated macrophages on T cell responses.
The observation of selective macrophage toxicity is further supported by the observation that CA4P treatment of unseparated spleen cells recapitulates this anti-tumor immune response. FIG. 3 illustrates the in vitro immune proliferative response of unseparated spleen cells isolated from tumor-free rats previously vaccinated with IL-18 and IL-12 transfected tumor cells. Spleen cells were stimulated with untransfected (H1D2-WT) tumor cells (FIG. 3A) or the superantigen SEA polyclonal activator (FIG. 3B) after preincubation with or without CA4P (0.15 μg/ml).
As described in Table 1, spleen cells were isolated from tumor-free BN×WF hybrid rats immunized twice (1 week between vaccinations) with BN7005-H1D2 tumor cells producing IL-18 and IL-12, respectively. Macrophages were isolated from the sample by allowing isolated spleen cells to adhere to the plastic surface of 96-well microtiter plates, at which point the non-adherent cells were removed.
The purified adherent cells (6×10^5/microtiter well) were treated in vitro for 3 hours with 0.15 ug/ml CA4P before washing. […] These variables were used to choose an in vitro concentration that is equal to the average concentration in vivo after a 3 hour period. For example, after treatment with 2 mg/kg in vivo, the concentration would be a maximum of 0.18 ug/ml 1.5 hours later, and less than 1 ng/ml after 3 hours.
The proliferative response of 3×10^5 admixed non-adherent cells (e.g. T-cells) stimulated for 4 days with SEA (0.05 ng/ml) was estimated as in Example 1. […] This effect is interpreted as due to a decrease of the suppressive effect of the IL-12 and IL-18 activated macrophages on T cell responses. […]

For data set [4] the following is noted: cited from earlier work.
Data set [5] relates to BT4Cn tumor blood vessels. Description: Tumor vascular shut-down, open tumor blood vessels 24 h after CA4P (FIG. 2B). In kind it is in vivo, rat. The procedure: FIG. 2B illustrates the percentage of open tumor blood vessels in an excised tumor 24 hours after administration of various doses of CA4P to a BT4Cn tumor bearing rat.
Results of in vitro studies indicate that the dose of Combretastatin A4 Prodrug that is administered is critical for obtaining a specific immunological effect. The specific immunomodulatory properties of CA4P are only observed at a low dosage, whereas higher doses fail to remove the immunosuppressive effects of the established tumor or induce suppression of lymphocyte activity. […] Proliferation of spleen immune cells was monitored by 3-H-thymidine incorporation (CPM) after 5 days incubation. […] An analysis of tumor pathology was performed on BT4Cn tumor-bearing rats when the tumor had growth to a size of 300 mm^3. Rats received single intraperitoneal injections of various doses of CA4P. Twenty-four hours later they were injected with 0.25 ml of Fluo-Spheres bead in the tail vein and sacrificed after 3 min. Tumors were removed and prepared for cryosection. Eight μm cryosections were examined directly in a fluorescence microscope and vessel volume was determined (Springer, MP., Ip, TK., and Blau, HM). Angiogenesis monitored by perfusion with space-filling microbead suspension (Mol. Ther. 1: 82-87, 2000). […] Thus in a preferred embodiment, the dose at which CA4P is administered to achieve a desired immune enhancing effect without vascular shutdown is less than 5 mg/kg.

Data set [6] has as its system NO production by spleen cells of tumor-free immunized rats. Description: NO production by spleen cells (Griess technique) after in vitro preincubation with CA4P. In kind it is cell-based, rat. The conditions noted are these: for Nitric oxide production into supernatant: unseparated spleen cells (L0), CA4-P 0.15 μg/ml preincubated 3 h. How it is done:
One of the main suppressive molecules produced by macrophages is nitric oxide (NO) and direct assays of the generation of NO released into the medium of parallel spleen cell cultures (containing both adherent and nonadherent cells) after exposure to SEA and CA4P were performed as previously described (Hegardt et al, Cancer Immunol & Immunother (2001) 50: 491-501).
The proliferative response of 3×10^5 admixed non-adherent cells (e.g. T-cells) stimulated for 4 days with SEA (0.05 ng/ml) was estimated as in Example 1. […] This effect is interpreted as due to a decrease of the suppressive effect of the IL-12 and IL-18 activated macrophages on T cell responses. Direct assays of the generation of NO released into the medium of parallel […] spleen cell cultures after exposure to SEA and CA4P were performed as previously described (Hegardt et al, 2001).

The mark [7] stands for this setting: CA4-P 2 mg/kg alone, no L-NAME, no immunization.
Setting [8] is: CA4-P 2 mg/kg i.p. 5 days a week, no L-NAME, with immunization, phosphate disodium salt.
The mark [9] stands for this setting: CA4-P 2 mg/kg, with L-NAME gavage, with immunization.
Setting [10] is: CA4-P 5 mg/kg, with L-NAME gavage, with immunization, phosphate disodium salt.

“And” between values parts separate entries of the source, which are not always exact repeats. Equal values may be shown once.

In the case of `COc1ccc(/C=C\c2cc(OC)c(OC)c(OC)c2)cc1OP(=O)([O-])[O-].[Na+].[Na+]` [CA4P, CA4 phosphate disodium salt], the “Rats responding to SEA” value in data set [1] (spleen cells challenged with SEA, 5 of 8 (untreated 13%)) worked out at 63%. The “Samples responding to tumor antigen challenge” value in data set [1] (spleen cells stimulated with autologous tumor cells, 7 of 18 (immunization alone 8%)) was determined as 39%. Besides, the “Tumor volume after 4 weeks, Mean” value in data set [2] (setting [7]) is 3834 mm^3; in data set [2] (setting [8]), 3918 mm^3 and 5755 mm^3 and 5135 mm^3 and 3698 mm^3; in data set [2] (setting [9]) it was 5064 mm^3; in data set [2] (setting [10]) it was 512 mm^3 and 561 mm^3. Also, the “Tumor volume after 4 weeks, Median” value in data set [2] (setting [7]) is 4037 mm^3; in data set [2] (setting [8]) it was 3780 mm^3 and 6195 mm^3 and 4275 mm^3 and 3393 mm^3; in data set [2] (CA4-P 2 mg/kg, with L-NAME (+Indomethacin 0.33 mg/kg), with immunization, phosphate disodium salt) it was 2867 mm^3 and 1463 mm^3 and 1962 mm^3; in data set [2] (setting [9]), 4792 mm^3; in data set [2] (setting [10]), 426 mm^3 and 367 mm^3. Moreover, the “Proliferative T cell response (CPM thymidine incorporation)” value in data set [3] (Rat#1, adherent spleen cells (MO) preincubated 3 h with CA4-P 0.15 μg/ml, then L1 nonadherent cells + SEA 0.05 ng/ml, 4 days) stood at 124K. In addition, in data set [3] (parallel studies (FIG. 3), spleen cells stimulated with wild type tumor cells and SEA 0.1 ng/ml, CA4P 0.15 μg/ml), the “Animals with stimulating effect on proliferative response” value was 3 of 4. Besides, in data set [3] (preincubation of adherent cells (spleen macrophages) with CA4P), the “Enhancement of in vitro proliferative response of admixed non-adherent cells” value stood at 2 fold. Further, the Half-life in vivo entry in data set [4] was “less than 15 min”. Further, the Vascular shutdown entry was “no vascular shut down could be observed” in data set [5] (2 mg/kg) and “no significant vascular shutdown” in data set [5] (doses below 4 mg/kg, single i.p. injection, 24 h). Further, the “Toxicity to microvessels and immune effect” value in data set [5] (higher doses, 4-100 mg/kg in the rat) was “toxic to microvessels and immunosuppressive”. Besides, the “Nitric oxide production into supernatant” value in data set [6] (Rat#1, Medium) stood at 7 µM; in data set [6] (Rat#1, SEA), 8 µM; in data set [6] (Rat#2, Medium), 6 µM; in data set [6] (Rat#2, SEA) it was 7 µM. Besides, the “Animals with inhibitory effect on NO production” value in data set [6] (parallel studies (FIG. 3), spleen cells, SEA 0.1 ng/ml, CA4P 0.15 μg/ml) is given as “all 4”. In data set [6] (spleen cell cultures exposed to SEA and CA4P, 2 animals studied), the “Effect on NO produced” value is on record as “significant reduction of NO produced”.
